Assay results published in ChEMBL document CHEMBL5303573, “Mapping human microbiome drug metabolism by gut bacteria and their genes” (Nature, 2019).

Legend:
[1] = The drug is tested on Bacteroides fragilis strain: ATCC43859 for biotransformation. The drug concentrations were measured before and after a 12-h incubation by liquid-chromatography-coupled mass spectrometry (LC–MS); details: 2 µM
[2] = The drug is tested on Bifidobacterium longum subsp. Infantis strain: CCUG52486 for biotransformation. The drug concentrations were measured before and after a 12-h incubation by liquid-chromatography-coupled mass spectrometry (LC–MS); details: 2 µM
[3] = The drug is tested on Anaerococcus hydrogenalis strain: DSM7454 for biotransformation. The drug concentrations were measured before and after a 12-h incubation by liquid-chromatography-coupled mass spectrometry (LC–MS); details: 2 µM
[4] = bacteroides fragilis, 12 h, 2 µM
Description: The drug is tested on Bacteroides fragilis strain: 3397 (T10) for biotransformation. The drug concentrations were measured before and after a 12-h incubation by liquid-chromatography-coupled mass spectrometry (LC–MS)

[5] = bacteroides stercoris, 12 h, 2 µM
Description: The drug is tested on Bacteroides stercoris strain: ATCC43183 for biotransformation. The drug concentrations were measured before and after a 12-h incubation by liquid-chromatography-coupled mass spectrometry (LC–MS)

[6] = The drug is tested on Bacteroides sp. WH2 strain: WH2 for biotransformation. The drug concentrations were measured before and after a 12-h incubation by liquid-chromatography-coupled mass spectrometry (LC–MS); details: bacteroides sp. wh2, 12 h, 2 µM
[7] = segatella copri, 12 h, 2 µM
Description: The drug is tested on Prevotella copri strain: DSM18205 for biotransformation. The drug concentrations were measured before and after a 12-h incubation by liquid-chromatography-coupled mass spectrometry (LC–MS)

[8] = parabacteroides distasonis, 12 h, 2 µM
Description: The drug is tested on Parabacteroides distasonis strain: ATCC8503 for biotransformation. The drug concentrations were measured before and after a 12-h incubation by liquid-chromatography-coupled mass spectrometry (LC–MS)

[9] = The drug is tested on Ruminococcus torques strain: ATCC27756 for biotransformation. The drug concentrations were measured before and after a 12-h incubation by liquid-chromatography-coupled mass spectrometry (LC–MS); type: ADME; parameters: dose 2 uM, timepoint 0 vs 12 hours; details: 2 µM
[10] = The drug is tested on Enterococcus faecalis strain: V583 for biotransformation. The drug concentrations were measured before and after a 12-h incubation by liquid-chromatography-coupled mass spectrometry (LC–MS); details: 2 µM
[11] = bacteroides fragilis, 12 h, 2 µM; remark: listed apart in the source
Description: The drug is tested on Bacteroides fragilis strain: NCTC 9343 for biotransformation. The drug concentrations were measured before and after a 12-h incubation by liquid-chromatography-coupled mass spectrometry (LC–MS)

[12] = The drug is tested on Blautia luti strain: DSM14534 for biotransformation. The drug concentrations were measured before and after a 12-h incubation by liquid-chromatography-coupled mass spectrometry (LC–MS); type: ADME; parameters: dose 2 uM, timepoint 0 vs 12 hours; details: 2 µM
[13] = The drug is tested on Eubacterium ventriosum strain: ATCC27560 for biotransformation. The drug concentrations were measured before and after a 12-h incubation by liquid-chromatography-coupled mass spectrometry (LC–MS); type: ADME; parameters: dose 2 uM, timepoint 0 vs 12 hours; details: 2 µM
[14] = The drug is tested on Enterobacter cancerogenus strain: ATCC35316 for biotransformation. The drug concentrations were measured before and after a 12-h incubation by liquid-chromatography-coupled mass spectrometry (LC–MS); details: 2 µM
[15] = The drug is tested on Bacteroides caccae strain: ATCC43185 for biotransformation. The drug concentrations were measured before and after a 12-h incubation by liquid-chromatography-coupled mass spectrometry (LC–MS); details: 2 µM
[16] = bacteroides thetaiotaomicron, 12 h, 2 µM
Description: The drug is tested on Bacteroides thetaiotaomicron strain: 3731 for biotransformation. The drug concentrations were measured before and after a 12-h incubation by liquid-chromatography-coupled mass spectrometry (LC–MS)

[17] = The drug is tested on Bacteroides fragilis strain: HMW610 for biotransformation. The drug concentrations were measured before and after a 12-h incubation by liquid-chromatography-coupled mass spectrometry (LC–MS); details: 2 µM
[18] = The drug is tested on Clostridium scindens strain: ATCC35704 for biotransformation. The drug concentrations were measured before and after a 12-h incubation by liquid-chromatography-coupled mass spectrometry (LC–MS); details: 2 µM
[19] = The drug is tested on Bifidobacterium ruminantium strain: fecal isolate for biotransformation. The drug concentrations were measured before and after a 12-h incubation by liquid-chromatography-coupled mass spectrometry (LC–MS); details: 2 µM
[20] = The drug is tested on Bacteroides dorei strain: DSM17855 for biotransformation. The drug concentrations were measured before and after a 12-h incubation by liquid-chromatography-coupled mass spectrometry (LC–MS); details: phocaeicola dorei, 2 µM

SMILES	Bacterial Biotransformation [1]	Bacterial Biotransformation [2]	Bacterial Biotransformation [3]	Bacterial Biotransformation [4]	Bacterial Biotransformation [5]	Bacterial Biotransformation [6]	Bacterial Biotransformation [7]	Bacterial Biotransformation [8]	Bacterial Biotransformation [9]	Bacterial Biotransformation [10]	Bacterial Biotransformation [11]	Bacterial Biotransformation [12]	Bacterial Biotransformation [13]	Bacterial Biotransformation [14]	Bacterial Biotransformation [15]	Bacterial Biotransformation [16]	Bacterial Biotransformation [17]	Bacterial Biotransformation [18]	Bacterial Biotransformation [19]	Bacterial Biotransformation [20]
N[C@@H](Cc1ccc(N(CCCl)CCCl)cc1)C(=O)O	Compound metabolized	Compound metabolized	Compound metabolized	Compound metabolized	Compound metabolized	Compound metabolized	Compound metabolized	Compound metabolized	Compound metabolized	Compound metabolized	Compound metabolized	Compound metabolized	Compound metabolized	Compound metabolized	Compound metabolized	Compound metabolized	Compound metabolized	Compound metabolized	Compound metabolized	Compound metabolized
COc1ccnc(C[S+]([O-])c2nc3ccc(OC(F)F)cc3[nH]2)c1OC (stereo not given) [PANTOPRAZOLE]	Compound metabolized	Compound metabolized	Compound metabolized	Compound metabolized	Compound metabolized	Compound metabolized	Compound metabolized	Compound metabolized	Compound metabolized	Compound metabolized	Compound metabolized	Compound metabolized	Compound metabolized	Compound metabolized	Compound metabolized	Compound metabolized	Compound metabolized	Compound metabolized	Compound metabolized	Compound metabolized
CC[C@H](C)C(=O)O[C@H]1C[C@@H](C)C=C2C=C[C@H](C)[C@H](CC[C@@H]3C[C@@H](O)CC(=O)O3)[C@H]21 [LOVASTATIN]	Compound NOT metabolized	Compound NOT metabolized	Compound metabolized	Compound metabolized	Compound NOT metabolized	Compound NOT metabolized	Compound NOT metabolized	Compound metabolized	Compound NOT metabolized	Compound metabolized	Compound metabolized	Compound NOT metabolized	Compound NOT metabolized	Compound metabolized	Compound NOT metabolized	Compound NOT metabolized	Compound metabolized	Compound metabolized	Compound NOT metabolized	Compound metabolized
C#C[C@]1(O)CC[C@H]2[C@@H]3CCC4=Cc5oncc5C[C@]4(C)[C@H]3CC[C@@]21C [DANAZOL]	Compound metabolized	Compound metabolized	Compound metabolized	Compound metabolized	Compound metabolized	Compound metabolized	Compound metabolized	Compound metabolized	Compound metabolized	Compound metabolized	Compound metabolized	Compound metabolized	Compound metabolized	Compound metabolized	Compound metabolized	Compound metabolized	Compound metabolized	Compound metabolized	Compound metabolized	Compound metabolized
CCN(CC)C(=O)/C(C#N)=C/c1cc(O)c(O)c([N+](=O)[O-])c1 [ENTACAPONE]	Compound metabolized	Compound metabolized	Compound metabolized	Compound metabolized	Compound metabolized	Compound metabolized	Compound metabolized	Compound metabolized	Compound metabolized	Compound metabolized	Compound metabolized	Compound metabolized	Compound metabolized	Compound metabolized	Compound metabolized	Compound metabolized	Compound metabolized	Compound metabolized	Compound metabolized	Compound metabolized
CCS(=O)(=O)CCn1c([N+](=O)[O-])cnc1C [TINIDAZOLE]	Compound metabolized	Compound metabolized	Compound metabolized	Compound metabolized	Compound metabolized	Compound metabolized	Compound metabolized	Compound metabolized	Compound metabolized	Compound metabolized	Compound metabolized	Compound metabolized	Compound metabolized	Compound NOT metabolized	Compound metabolized	Compound metabolized	Compound metabolized	Compound metabolized	Compound metabolized	Compound metabolized
C[C@@H]1CC[C@H]2[C@@H](C)C(=O)O[C@@H]3O[C@@]4(C)CC[C@@H]1[C@]32OO4 [ARTEMISININ]	Compound metabolized	Compound metabolized	Compound metabolized	Compound metabolized	Compound metabolized	Compound metabolized	Compound metabolized	Compound metabolized	Compound metabolized	Compound metabolized	Compound metabolized	Compound metabolized	Compound metabolized	Compound metabolized	Compound metabolized	Compound metabolized	Compound metabolized	Compound metabolized	Compound metabolized	Compound metabolized
CC[C@H](C)C(=O)O[C@H]1CCC=C2C=C[C@H](C)[C@H](CC[C@@H]3C[C@@H](O)CC(=O)O3)[C@H]21 [MEVASTATIN]	Compound NOT metabolized	Compound metabolized	Compound metabolized	Compound metabolized	Compound metabolized	Compound metabolized	Compound metabolized	Compound metabolized	Compound metabolized	Compound metabolized	Compound metabolized	Compound metabolized	Compound metabolized	Compound metabolized	Compound metabolized	Compound metabolized	Compound NOT metabolized	Compound metabolized	Compound metabolized	Compound metabolized
